Reference: PubChem BioAssay AID1259246 (Broad Institute, 2017)
Inconclusive results are not listed. Active and inactive are the calls of the source.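 Rule for the calls: active = valid dose-response fit whose half-maximal growth-inhibiting concentration is at or below a set limit above the top tested dose; inconclusive = flat fit with effect between 30 and 70%, or poor fit; inactive = half-maximal concentration above a set limit.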

Test: antibacterial activity against Clostridioides difficile – 10-point retest, dose response (AID 1259246)
Details: Clostridioides difficile clinical isolate growth, OD600, 24 h

SMILES | activity change, negative = inhibition (at 120 µM (top of the series)) | also measured
C[C@@H]1CN([C@H](C)CO)S(=O)(=O)c2ccc(C#CC3CCCCC3)cc2O[C@H]1CN(C)Cc1cccnc1 | 18.8% (inactive) | –
O=C(C[C@H]1C[C@@H]2c3cc(NC(=O)Nc4ccc(F)cc4)ccc3O[C@@H]2[C@@H](CO)O1)NC1CCCCC1 | – | activity change, negative = inhibition (at 60 µM (top of the series)): 0.486% (inactive)
COc1ccc(NC(=O)Nc2cccc3c2O[C@H](CN(C)Cc2ccc(Oc4ccccc4)cc2)[C@@H](C)CN([C@@H](C)CO)C3=O)cc1 | 19.2% (inactive) | –
COc1ccc(-c2ccc([C@H]3[C@H](C#N)N(C(=O)c4cccc(F)c4)[C@H]3CO)cc2)cc1 | 21.7% (inactive) | –
C[C@@H]1CN([C@H](C)CO)C(=O)c2cc(NC(=O)Nc3cccc4ccccc34)ccc2O[C@@H](C)CCCCO[C@H]1CN(C)S(=O)(=O)c1ccc(F)cc1 | 38% (inactive) | –
C[C@@H]1CN([C@H](C)CO)C(=O)c2cccc(NC(=O)Nc3ccc(C(F)(F)F)cc3)c2O[C@H]1CN(C)S(=O)(=O)c1ccc(Cl)cc1 | 48.2% (inactive) | –
CC(C)CC#Cc1ccc2c(c1)O[C@H](CN(C)Cc1ccc3c(c1)OCO3)[C@H](C)CN([C@H](C)CO)S2(=O)=O | 15.4% (inactive) | –
C[C@@H]1CN([C@@H](C)CO)C(=O)Cc2cc(NS(C)(=O)=O)ccc2O[C@@H]1CN(C)Cc1ccc(-c2ccccc2)cc1 | – | activity change, negative = inhibition (at 135 µM (top of the series)): 16.9% (inactive)
C[C@@H]1CN([C@@H](C)CO)C(=O)Cc2cc(NS(=O)(=O)c3ccccc3)ccc2O[C@@H]1CN(C)Cc1ccc(-c2ccccc2)cc1 | – | activity change, negative = inhibition (at 135 µM (top of the series)): 17.3% (inactive)
C[C@@H]1CCCCO[C@@H](CN(C)S(=O)(=O)c2ccc(F)cc2)[C@H](C)CN([C@H](C)CO)C(=O)c2cc(NC(=O)Nc3cccc4ccccc34)ccc2O1 | 34.2% (inactive) | –
COc1ccc(-c2ccc([C@H]3[C@H](C#N)N(C(=O)NC4CCCCC4)[C@H]3CO)cc2)cc1 | 7.21% (inactive) | –
C[C@H](CO)N1C[C@H](C)[C@@H](CN(C)C(=O)Cc2cccnc2)Oc2cc(C#Cc3ccccc3F)ccc2S1(=O)=O | 40.8% (inactive) | –
CO[C@@H]1CN(C)C(=O)c2ccc(NC(=O)c3nc4ccccc4s3)cc2OC[C@@H](C)N(Cc2ccncc2)C[C@H]1C | 28.6% (inactive) | –
C[C@@H]1CN([C@@H](C)CO)S(=O)(=O)c2ccc(C#CCN(C)C)cc2O[C@@H]1CN(C)Cc1ccc2c(c1)OCO2 | 2.58% (inactive) | –
CO[C@H]1CN(C)C(=O)c2cc(NC(=O)Nc3ccc4c(c3)OCO4)ccc2OC[C@H](C)NC[C@H]1C | -6.51% (inactive) | –
C[C@@H]1CN([C@H](C)CO)C(=O)c2cccc(NC(=O)Nc3ccc4c(c3)OCO4)c2O[C@H]1CN(C)Cc1ccc(-c2ccccc2)cc1 | 6.58% (inactive) | –
CO[C@H]1CN(C)C(=O)c2ccc(NC(=O)c3ccc(-c4ccccc4)cc3)cc2OC[C@@H](C)NC[C@@H]1C | – | activity change, negative = inhibition (at 60 µM (top of the series)): 12.9% (inactive)
C[C@H]1CN([C@@H](C)CO)C(=O)Cc2cc(NC(=O)C3CC3)ccc2O[C@@H]1CN(C)Cc1ccc(-c2ccccc2)cc1 | – | activity change, negative = inhibition (at 135 µM (top of the series)): 17.1% (inactive)
C[C@@H]1CN([C@H](C)CO)S(=O)(=O)c2ccc(C#Cc3ccccc3F)cc2O[C@@H]1CN(C)CC1CCOCC1 | 19.4% (inactive) | –
COc1ccc(-c2ccc([C@H]3[C@H](C#N)N(C(=O)C4CCCC4)[C@H]3CO)cc2)cc1 | 5.91% (inactive) | –
C[C@@H]1CN([C@@H](C)CO)C(=O)Cc2cc(NC(=O)CCCN(C)C)ccc2O[C@H]1CN(C)C(=O)Nc1ccccc1 | -1.61% (inactive) | –
C[C@H](CO)N1C[C@H](C)[C@@H](CN(C)C(=O)NC2CCCCC2)Oc2c(NC(=O)Nc3ccc(C(F)(F)F)cc3)cccc2C1=O | 28.9% (inactive) | –
C[C@H]1CN([C@@H](C)CO)C(=O)Cc2cc(NC(=O)C3CC3)ccc2O[C@H]1CN(C)Cc1ccc(-c2ccccc2)cc1 | 18.3% (inactive) | –
COc1cccc(NC(=O)N(C)C[C@@H]2Oc3cc(/C=C/c4ccccc4)ccc3S(=O)(=O)N([C@@H](C)CO)C[C@H]2C)c1 | 19.6% (inactive) | –
C[C@H](CO)N1C[C@H](C)[C@H](CN(C)Cc2ccc(Oc3ccccc3)cc2)Oc2c(NC(=O)Nc3ccccc3)cccc2C1=O | 10.9% (inactive) | –
C[C@@H]1CN([C@H](C)CO)S(=O)(=O)c2ccc(C#CC3CCCCC3)cc2O[C@@H]1CN(C)Cc1cccnc1 | 20.4% (inactive) | –
C[C@@H]1CCCCO[C@@H](CN(C)S(=O)(=O)c2ccc(F)cc2)[C@@H](C)CN([C@@H](C)CO)C(=O)c2cc(NC(=O)Nc3cccc4ccccc34)ccc2O1 | 12.1% (inactive) | –
C[C@H](CO)N1C[C@H](C)[C@@H](CN(C)Cc2cccnc2)Oc2cc(C#CC3CCCCC3)ccc2S1(=O)=O | 27.1% (inactive) | –
CNC[C@H]1Oc2c(N)cccc2C(=O)N([C@H](C)CO)C[C@@H]1C | – | activity change, negative = inhibition (at 135 µM (top of the series)): -1.95% (inactive)
